Assay results reported in US11484561B2, “Morus extracts rich in N-acids of imino sugars and or pipecolic acids” (Phynova Limited, priority 2011, dated 2022).

How the values were obtained:
Assay type in all cases: biochemical
[1] = molecular target: T1, α-D-mannosidase (Jack bean) (Canavalia ensiformis, UniProt C0HJB3); assay: Glycosidase assay, α-D-mannosidase (Jack bean); conditions: Table 16; % inhibition; concentration not given
T1 construct: purchased Sigma-Aldrich
T1 sequence (C0HJB3 1-562 limits assumed): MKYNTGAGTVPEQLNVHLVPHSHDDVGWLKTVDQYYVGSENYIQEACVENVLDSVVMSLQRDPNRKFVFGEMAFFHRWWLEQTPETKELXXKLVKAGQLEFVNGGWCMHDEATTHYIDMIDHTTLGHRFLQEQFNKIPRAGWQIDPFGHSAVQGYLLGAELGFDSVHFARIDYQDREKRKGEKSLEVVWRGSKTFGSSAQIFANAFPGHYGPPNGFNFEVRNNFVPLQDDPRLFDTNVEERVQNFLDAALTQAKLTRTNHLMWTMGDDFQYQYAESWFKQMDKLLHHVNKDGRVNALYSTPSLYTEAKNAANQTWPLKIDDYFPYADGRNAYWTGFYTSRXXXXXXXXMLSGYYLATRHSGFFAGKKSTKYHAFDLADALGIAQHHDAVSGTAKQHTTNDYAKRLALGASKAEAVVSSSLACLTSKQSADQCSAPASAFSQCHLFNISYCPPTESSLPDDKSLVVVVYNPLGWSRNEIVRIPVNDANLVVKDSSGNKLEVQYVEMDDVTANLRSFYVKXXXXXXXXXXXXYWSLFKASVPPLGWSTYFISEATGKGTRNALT
Method: The assays used p-nitrophenyl-substrates and commercial enzymes purchased from Sigma-Aldrich. Enzymes were assayed at 27° C. in 0.1M citric acid/0.2M disodium hydrogen phosphate buffers at the optimum pH for the enzyme. The incubation mixture consisted of 10 μl enzyme solution, 10 μl of 10 mg/ml aqueous solution of extract and 50 μl of the appropriate 5 mM p-nitrophenyl substrate made up in buffer at the optimum pH for the enzyme. […] Final absorbances were read at 405 nm using a Versamax microplate reader (Molecular Devices). Assays were carried out in triplicate, and the values given are means of the three replicates per assay. Results are expressed as % inhibition.
(§1) Substrates are 10 mM p-nitrophenyl-glycopyranosides. Enzymes are purchased from Sigma and run at the pH optima

[2] = molecular target: T2, amyloglucosidase (A. niger) (Aspergillus niger, UniProt P69328); assay: Glycosidase assay, amyloglucosidase (A. niger); conditions: Table 16; % inhibition; concentration not given
T2 construct: purchased Sigma-Aldrich
Method: (§2) The assays used p-nitrophenyl-substrates and commercial enzymes purchased from Sigma-Aldrich. Enzymes were assayed at 27° C. in 0.1M citric acid/0.2M disodium hydrogen phosphate buffers at the optimum pH for the enzyme. The incubation mixture consisted of 10 μl enzyme solution, 10 μl of 10 mg/ml aqueous solution of extract and 50 μl of the appropriate 5 mM p-nitrophenyl substrate made up in buffer at the optimum pH for the enzyme. The reactions were stopped by addition of 70 μl 0.4M glycine (pH 10.4) during the exponential phase of the reaction, which had been determined at the beginning using uninhibited assays in which water replaced mulberry fractions. Final absorbances were read at 405 nm using a Versamax microplate reader (Molecular Devices). Assays were carried out in triplicate, and the values given are means of the three replicates per assay. Results are expressed as % inhibition.
as §1

[3] = system: α-D-glucosidase (Bacillus); assay: Glycosidase assay, α-D-glucosidase (Bacillus); conditions: Table 16; % inhibition; concentration not given
Method: as §2, §1

[4] = molecular target: T3, β-D-galactosidase (bovine) (Bos taurus, UniProt Q58D55); assay: Glycosidase assay, β-D-galactosidase (bovine); conditions: Table 16; % inhibition; concentration not given
T3 construct: purchased Sigma-Aldrich
T3 sequence (Q58D55 28-653): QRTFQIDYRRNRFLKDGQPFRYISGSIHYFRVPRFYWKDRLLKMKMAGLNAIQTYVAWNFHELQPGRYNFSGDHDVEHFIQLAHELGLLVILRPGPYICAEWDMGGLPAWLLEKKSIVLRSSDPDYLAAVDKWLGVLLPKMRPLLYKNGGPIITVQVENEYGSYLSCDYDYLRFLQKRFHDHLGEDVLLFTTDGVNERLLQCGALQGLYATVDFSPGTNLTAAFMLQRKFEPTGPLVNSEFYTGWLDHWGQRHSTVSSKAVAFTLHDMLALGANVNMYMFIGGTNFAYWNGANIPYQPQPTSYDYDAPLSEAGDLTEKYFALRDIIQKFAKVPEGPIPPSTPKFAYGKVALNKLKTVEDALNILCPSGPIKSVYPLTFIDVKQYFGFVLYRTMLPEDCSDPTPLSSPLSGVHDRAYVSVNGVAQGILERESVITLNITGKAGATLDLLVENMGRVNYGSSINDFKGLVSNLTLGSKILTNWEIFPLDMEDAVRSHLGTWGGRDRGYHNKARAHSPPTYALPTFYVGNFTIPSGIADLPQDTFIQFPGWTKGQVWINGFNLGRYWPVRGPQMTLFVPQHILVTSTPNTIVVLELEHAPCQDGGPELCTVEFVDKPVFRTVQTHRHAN
Method: as §2, §1

[5] = molecular target: T4, β-glucuronidase (bovine liver) (Bos taurus, UniProt A3KMY8); assay: Glycosidase assay, β-glucuronidase (bovine liver); conditions: read-out: IC50 against bovine liver β-glucuronidase
T4 construct: purchased Sigma-Aldrich; host or cells: bovine liver
T4 sequence (A3KMY8 1-652): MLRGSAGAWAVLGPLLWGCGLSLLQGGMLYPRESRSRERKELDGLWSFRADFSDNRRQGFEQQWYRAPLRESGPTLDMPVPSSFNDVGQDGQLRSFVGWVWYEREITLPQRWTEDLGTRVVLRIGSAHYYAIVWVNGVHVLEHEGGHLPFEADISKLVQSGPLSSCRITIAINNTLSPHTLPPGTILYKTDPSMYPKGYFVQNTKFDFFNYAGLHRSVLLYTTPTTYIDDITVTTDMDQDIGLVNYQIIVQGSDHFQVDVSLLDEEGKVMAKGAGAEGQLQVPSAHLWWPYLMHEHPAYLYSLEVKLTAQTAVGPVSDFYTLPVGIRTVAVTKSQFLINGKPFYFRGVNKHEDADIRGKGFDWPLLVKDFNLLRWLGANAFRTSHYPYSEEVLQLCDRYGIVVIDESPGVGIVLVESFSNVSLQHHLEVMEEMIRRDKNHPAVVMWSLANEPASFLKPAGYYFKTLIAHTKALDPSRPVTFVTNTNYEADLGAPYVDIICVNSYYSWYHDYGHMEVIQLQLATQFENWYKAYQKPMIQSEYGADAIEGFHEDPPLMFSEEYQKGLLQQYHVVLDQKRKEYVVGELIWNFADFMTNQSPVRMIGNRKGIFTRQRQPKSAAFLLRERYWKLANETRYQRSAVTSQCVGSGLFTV
Method: as §2, §1

α-D-glucosidase (rice) = molecular target: T5, α-D-glucosidase (rice) (Oryza sativa subsp. japonica, UniProt Q653V7); assay: Glycosidase assay, α-D-glucosidase (rice); conditions: Table 16; % inhibition; concentration not given
T5 construct: purchased Sigma-Aldrich
Method: as §2, §1

β-D-glucosidase (yeast) = assay: Glycosidase assay, β-D-glucosidase (yeast); conditions: Table 16; % inhibition; concentration not given
Method: as §2

T5 sequence (Q653V7 34-885): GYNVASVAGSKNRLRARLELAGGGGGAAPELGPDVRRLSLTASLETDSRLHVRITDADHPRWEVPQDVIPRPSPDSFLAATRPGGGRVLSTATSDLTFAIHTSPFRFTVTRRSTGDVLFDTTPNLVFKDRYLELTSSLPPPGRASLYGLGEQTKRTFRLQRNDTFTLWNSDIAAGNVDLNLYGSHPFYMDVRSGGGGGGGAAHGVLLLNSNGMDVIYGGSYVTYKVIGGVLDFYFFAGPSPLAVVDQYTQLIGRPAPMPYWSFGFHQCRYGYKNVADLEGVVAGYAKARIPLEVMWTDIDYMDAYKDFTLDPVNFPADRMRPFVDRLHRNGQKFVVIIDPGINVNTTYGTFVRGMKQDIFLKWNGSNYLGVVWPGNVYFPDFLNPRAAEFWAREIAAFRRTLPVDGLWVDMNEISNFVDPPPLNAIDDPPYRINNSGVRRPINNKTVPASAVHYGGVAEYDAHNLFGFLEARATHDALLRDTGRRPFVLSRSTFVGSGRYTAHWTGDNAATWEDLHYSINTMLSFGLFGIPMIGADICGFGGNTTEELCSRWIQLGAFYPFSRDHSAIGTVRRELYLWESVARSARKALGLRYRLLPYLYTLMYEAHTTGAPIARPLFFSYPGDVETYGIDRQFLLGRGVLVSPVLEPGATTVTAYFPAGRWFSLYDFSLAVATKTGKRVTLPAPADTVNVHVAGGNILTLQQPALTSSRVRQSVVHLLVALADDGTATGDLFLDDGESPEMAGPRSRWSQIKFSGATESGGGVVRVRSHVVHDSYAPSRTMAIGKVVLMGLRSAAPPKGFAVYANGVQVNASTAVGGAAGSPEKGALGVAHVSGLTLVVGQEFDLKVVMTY
T2 sequence (P69328 25-640): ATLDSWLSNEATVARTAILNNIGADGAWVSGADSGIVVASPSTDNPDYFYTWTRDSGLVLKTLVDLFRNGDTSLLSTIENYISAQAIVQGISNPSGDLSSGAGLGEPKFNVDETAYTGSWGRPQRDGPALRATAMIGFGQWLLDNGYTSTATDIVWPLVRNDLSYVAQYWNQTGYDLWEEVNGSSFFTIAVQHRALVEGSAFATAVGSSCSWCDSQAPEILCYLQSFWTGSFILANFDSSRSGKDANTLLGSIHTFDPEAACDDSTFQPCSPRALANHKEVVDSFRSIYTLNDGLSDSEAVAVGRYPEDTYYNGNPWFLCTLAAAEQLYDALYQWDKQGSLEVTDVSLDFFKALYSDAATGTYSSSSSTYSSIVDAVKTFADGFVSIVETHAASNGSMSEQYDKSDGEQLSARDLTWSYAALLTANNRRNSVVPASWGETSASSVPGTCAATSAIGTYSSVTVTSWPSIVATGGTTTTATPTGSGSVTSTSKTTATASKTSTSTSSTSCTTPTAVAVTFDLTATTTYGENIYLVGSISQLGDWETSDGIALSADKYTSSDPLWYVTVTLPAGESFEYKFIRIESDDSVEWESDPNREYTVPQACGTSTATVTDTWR

Compound | α-D-mannosidase (Jack bean) [1] | Amyloglucosidase [2] | α-D-glucosidase (Bacillus) [3] | β-D-galactosidase (Bovine) [4] | IC50 [5] | α-D-glucosidase (Rice) (α-D-glucosidase (rice)) | β-D-glucosidase (yeast) (β-D-glucosidase (yeast))
O=C(O)CN1C[C@H](O)[C@@H](O)[C@H](O)[C@H]1CO [DNJ-N-ethanoic, DNJ-ethanoic acid] | 38% | 0% | 9.1% | 2% | 208 µM | 100% | 14%
O=C(O)CN1C[C@@H](O)[C@H](O)[C@H]1CO [DAB-N-ethanoic, DAB-N-ethanoic acid] | 28% | −2% | 24.2% | 0% | 523 µM | 42% | 7%
OC[C@H]1NC[C@H](O)[C@@H](O)[C@@H]1O [DNJ, 1 deoxynojirmycin] | 27% | 32% | 100% | 0% |  | 100% | 64%
O=C(O)CCN1C[C@H](O)[C@@H](O)[C@H](O)[C@H]1CO [DNJ-N-propanoic, DNJ-N-propanoic acid] | 40% | 53% | 45.0% | 12% | 340 µM | 100% | 32%
